According to patent US11046694B2, “Compounds and methods for treating bacterial infections” (Entasis Therapeutics, Inc., priority 2018, dated 2021):
Values after ≈ are worked out from the molar mass of the structure shown. Structures can show the parent of a compound that is named as a salt.

Legend:
[1] = test system: K. pneumoniae (ATCC700603); experiment: MIC against K. pneumoniae; details: Klebsiella pneumoniae, ATCC700603, read-out: K. pneumoniae MIC (ATCC700603)
[2] = test system: P. aeruginosa WT (PAO1); experiment: MIC, CLSI broth microdilution, P. aeruginosa; format: cell-based; details: Pseudomonas aeruginosa, PAO1; CLSI broth microdilution; read-out: P. aeruginosa WT (PAO1) MIC
[3] = test system: E. coli (ATCC25922); experiment: MIC against E. coli; details: Escherichia coli, ATCC25922, read-out: E. coli MIC (ATCC25922) (mg/L)
[4] = molecular target: P. aeruginosa PBP3 (Pseudomonas aeruginosa, UniProt G3XD46); format: biochemical; details: P. aeruginosa PBP3 60 nM, BOCILLIN FL 30 nM, pH 7.0
[5] = molecular target: P. aeruginosa PBP1a (Pseudomonas aeruginosa, UniProt Q07806); format: biochemical; details: P. aeruginosa PBP1a 60 nM, BOCILLIN FL 30 nM, pH 7.0
[6] = molecular target: T1, P. aeruginosa PBP2 (Pseudomonas aeruginosa, UniProt Q9X6V3); format: biochemical; details: P. aeruginosa PBP2 300 nM, BOCILLIN FL 30 nM, pH 6.2
T1 sequence (Q9X6V3 1-646): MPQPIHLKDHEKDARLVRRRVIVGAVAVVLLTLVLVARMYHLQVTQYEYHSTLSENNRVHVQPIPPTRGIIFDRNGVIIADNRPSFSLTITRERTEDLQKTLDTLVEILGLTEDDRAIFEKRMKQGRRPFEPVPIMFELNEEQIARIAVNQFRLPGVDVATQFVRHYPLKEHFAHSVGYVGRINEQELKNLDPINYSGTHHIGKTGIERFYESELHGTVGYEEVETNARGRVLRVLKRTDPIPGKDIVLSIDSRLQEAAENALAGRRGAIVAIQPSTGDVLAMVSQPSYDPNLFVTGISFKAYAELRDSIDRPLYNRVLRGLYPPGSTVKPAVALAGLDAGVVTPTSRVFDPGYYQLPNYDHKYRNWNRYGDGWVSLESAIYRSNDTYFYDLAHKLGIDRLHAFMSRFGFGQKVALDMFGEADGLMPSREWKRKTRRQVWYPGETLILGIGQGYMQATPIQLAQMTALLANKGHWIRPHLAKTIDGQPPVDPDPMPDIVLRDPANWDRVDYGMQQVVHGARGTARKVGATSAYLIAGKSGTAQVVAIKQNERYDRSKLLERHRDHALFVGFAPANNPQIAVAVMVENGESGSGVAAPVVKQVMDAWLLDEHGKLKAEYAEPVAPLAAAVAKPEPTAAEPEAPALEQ

[7] = test system: A. baumannii (ARC3495); experiment: MIC against A. baumannii; details: Acinetobacter baumannii, read-out: A. baumannii MIC (ARC3495) (mg/L)

Chain of P. aeruginosa PBP1a (Q07806 whole entry): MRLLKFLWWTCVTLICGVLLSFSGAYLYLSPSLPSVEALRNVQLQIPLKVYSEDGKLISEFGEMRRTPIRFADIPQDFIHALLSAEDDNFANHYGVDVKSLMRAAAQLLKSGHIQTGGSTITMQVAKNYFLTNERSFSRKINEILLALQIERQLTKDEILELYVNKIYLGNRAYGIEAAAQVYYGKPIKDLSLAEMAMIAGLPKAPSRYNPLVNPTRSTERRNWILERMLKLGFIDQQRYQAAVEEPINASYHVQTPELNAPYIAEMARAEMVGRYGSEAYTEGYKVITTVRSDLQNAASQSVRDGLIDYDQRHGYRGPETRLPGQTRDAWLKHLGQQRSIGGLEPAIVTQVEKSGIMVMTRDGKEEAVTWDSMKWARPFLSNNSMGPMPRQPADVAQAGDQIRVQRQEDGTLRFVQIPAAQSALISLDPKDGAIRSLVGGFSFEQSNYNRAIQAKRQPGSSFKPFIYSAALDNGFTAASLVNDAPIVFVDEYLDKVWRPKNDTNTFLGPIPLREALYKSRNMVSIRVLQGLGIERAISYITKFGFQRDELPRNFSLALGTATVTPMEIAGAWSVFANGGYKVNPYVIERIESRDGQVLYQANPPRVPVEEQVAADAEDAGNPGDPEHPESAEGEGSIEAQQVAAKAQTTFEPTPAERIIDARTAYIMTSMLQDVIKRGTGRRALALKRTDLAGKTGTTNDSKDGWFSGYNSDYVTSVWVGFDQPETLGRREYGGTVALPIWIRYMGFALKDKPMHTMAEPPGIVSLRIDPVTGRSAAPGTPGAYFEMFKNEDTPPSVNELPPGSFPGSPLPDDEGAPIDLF
Chain of P. aeruginosa PBP3 (G3XD46 whole entry): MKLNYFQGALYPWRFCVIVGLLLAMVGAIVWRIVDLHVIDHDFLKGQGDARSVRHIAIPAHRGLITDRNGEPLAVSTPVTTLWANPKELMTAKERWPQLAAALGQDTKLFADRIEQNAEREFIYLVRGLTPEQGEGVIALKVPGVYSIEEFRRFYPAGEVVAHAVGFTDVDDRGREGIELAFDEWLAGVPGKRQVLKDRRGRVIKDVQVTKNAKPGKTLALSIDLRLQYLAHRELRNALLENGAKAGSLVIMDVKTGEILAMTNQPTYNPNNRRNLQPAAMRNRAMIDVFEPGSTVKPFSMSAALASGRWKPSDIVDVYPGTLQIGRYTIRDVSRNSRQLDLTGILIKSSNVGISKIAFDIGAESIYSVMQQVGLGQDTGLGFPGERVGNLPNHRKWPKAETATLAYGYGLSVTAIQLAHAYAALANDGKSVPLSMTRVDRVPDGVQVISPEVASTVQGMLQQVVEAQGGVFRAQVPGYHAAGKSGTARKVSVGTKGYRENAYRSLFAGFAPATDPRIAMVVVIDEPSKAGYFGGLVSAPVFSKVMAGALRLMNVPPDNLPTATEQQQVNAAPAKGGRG

Row | MIC [1] [µg/mL] | MIC [2] [µg/mL] | MIC [3] [mg/L] | MIC [7] [mg/L] | SMILES | PBP3 acylation rate, k(on) (M^−1 · s^−1) [4] | PBP1a acylation rate, k(on) (M^−1 · s^−1) [5] | PBP2 acylation rate, k(on) (M^−1 · s^−1) [6]
1 | > 16 | > 16 | < 8 | > 16 | Cn1ncc2c1[C@@H](/C(=N/O)C(N)=O)N1C[C@@H]2N(OS(=O)(=O)O)C1=O [Example 67, (4R,8S)-8-((Z)-2-amino-1-(hydroxyimino)-2-oxoethyl-1-methyl-6-oxo-4,8-dihydro-1H-4,7-methanopyrazolo[3,4-e][1,3]diazepin-5(6H)-yl hydrogen sulfate] | ** (** represents a k(on) of 100 to 10,000 M^−1 · s^−1) | * (* represents a k(on) < 100 M^−1 · s^−1) | * (* represents a k(on) < 100 M^−1 · s^−1)
2 | > 16 | > 16 | < 8 | > 16 | CC1C([C@@H]2c3c(cnn3C)[C@@H]3CN2C(=O)N3OS(=O)(=O)O)=NOC1CO (mixture of isomers) [Example 39, Pyridium (4R,8S)-8-(5-(hydroxymethyl)-4-methyl-4,5-dihydroisoxazol-3-yl)-1-methyl-6-oxo-4,8-dihydro-1H-4,7-methanopyrazolo[3,4-e][1,3]diazepin-5(6H)-yl hydrogen sulfate] | ** (** represents a k(on) of 100 to 10,000 M^−1 · s^−1) | * (* represents a k(on) < 100 M^−1 · s^−1) | * (* represents a k(on) < 100 M^−1 · s^−1)
3 | > 16 | > 16 | < 8 | > 16 | CN(N)/C(=N\OS(=O)(=O)O)[C@@H]1c2c(cnn2C)[C@@H]2CN1C(=O)N2OS(=O)(=O)O [Example 72, ((((Z)-((4R,8S)-1-methyl-6-oxo-5-(sulfooxy)-4,5,6,8-tetrahydro-1H-4,7-methanopyrazolo[3,4-e][1,3]diazepin-8-yl)(1-methylhydrazineyl)methylene)amino)oxy)sulfonic acid] | *** (*** represents a k(on) > 10,000 M^−1 · s^−1) | ** (** represents a k(on) of 100 to 10,000 M^−1 · s^−1) | * (* represents a k(on) < 100 M^−1 · s^−1)
4 | > 16 | > 16 | < 8 | > 16 | CN/C(=N\OC(=O)NCCCCNC(=O)C(F)(F)F)[C@@H]1c2c(cnn2C)[C@@H]2CN1C(=O)N2OS(=O)(=O)O [Example 45, (4R,8S)-1-methyl-8-((Z)—N-methyl-N′-(((4-(2,2,2-trifluoroacetamido)butyl)carbamoyl)oxy)carbamimidoyl)-6-oxo-4,8-dihydro-1H-4,7-methanopyrazolo[3,4-e][1,3]diazepin-5(6H)-yl hydrogen sulfate] | *** (*** represents a k(on) > 10,000 M^−1 · s^−1) | ** (** represents a k(on) of 100 to 10,000 M^−1 · s^−1) | –
5 | 8 to 16 | < 8 | 8 to 16 | 8 to 16 | CN/C(=N\O)[C@@H]1c2c(cnn2C/C=N/OCCN)[C@@H]2CN1C(=O)N2OS(=O)(=O)O (racemic) [Example 49, 1-((E)-2-((2-aminoethoxy)imino)ethyl)-8-((Z)—N′-hydroxy-N-methylcarbamimidoyl)-6-oxo-4,8-dihydro-1H-4,7-methanopyrazolo[3,4-e][1,3]diazepin-5(6H)-yl hydrogen sulfate] | *** (*** represents a k(on) > 10,000 M^−1 · s^−1) | * (* represents a k(on) < 100 M^−1 · s^−1) | –

Continued, molecule first:

Row | SMILES | MIC [1] [µg/mL] | MIC [2] [µg/mL] | MIC [3] [mg/L] | MIC [7] [mg/L] | PBP3 acylation rate, k(on) (M^−1 · s^−1) [4] | PBP1a acylation rate, k(on) (M^−1 · s^−1) [5] | PBP2 acylation rate, k(on) (M^−1 · s^−1) [6]
6 | CCN1CCN(C(=O)NC/C(=N\O)[C@@H]2c3c(cnn3C)[C@@H]3CN2C(=O)N3OS(=O)(=O)O)C(=O)C1=O [Example 55, (4R,8S)-8-((E)-2-(4-ethyl-2,3-dioxopiperazine-1-carboxamido)-1-(hydroxyimino)ethyl)-1-methyl-6-oxo-4,8-dihydro-1H-4,7-methanopyrazolo[3,4-e][1,3]diazepin-5(6H)-yl hydrogen sulfate] | > 16 | > 16 | < 8 | > 16 | * (* represents a k(on) < 100 M^−1 · s^−1) | * (* represents a k(on) < 100 M^−1 · s^−1) | * (* represents a k(on) < 100 M^−1 · s^−1)
7 | CN/C(=N\O)[C@@H]1c2c(cnn2C)[C@@H]2CN1C(=O)N2OS(=O)(=O)O (stereo in doubt) [Example 1, sodium (4R,8S)-8-((Z)—N′-hydroxy-N-methylcarbamimidoyl)-1-methyl-6-oxo-4,8-dihydro-1H-4,7-methanopyrazolo[3,4-e][1,3]diazepin-5(6H)-yl sulfate] | < 8 | < 8 | < 8 | < 8 | *** (*** represents a k(on) > 10,000 M^−1 · s^−1) | ** (** represents a k(on) of 100 to 10,000 M^−1 · s^−1) | * (* represents a k(on) < 100 M^−1 · s^−1)
8 | Cn1ncc2c1[C@@H](/C(N)=N/O)N1C[C@@H]2N(OS(=O)(=O)[O-])C1=O.[Na+] [Example 3, Sodium (4R,8S)-8-((Z)—N′-hydroxycarbamimidoyl)-1-methyl-6-oxo-4,8-dihydro-1H-4,7-methanopyrazolo[3,4-e][1,3]diazepin-5(6H)-yl sulfate] | < 8 | > 16 | < 8 | > 16 | ** (** represents a k(on) of 100 to 10,000 M^−1 · s^−1) | * (* represents a k(on) < 100 M^−1 · s^−1) | * (* represents a k(on) < 100 M^−1 · s^−1)
9 | Cn1ncc2c1[C@@H](/C(=N/OC(=O)NC(C)(C)C(=O)O)NCc1nc(N)cs1)N1C[C@@H]2N(OS(=O)(=O)O)C1=O [Example 52, (Z)-1-(4-aminothiazol-2-yl)-8,8-dimethyl-3-((4R,8S)-1-methyl-6-oxo-5-(sulfooxy)-4,5,6,8-tetrahydro-1H-4,7-methanopyrazolo[3,4-e][1,3]diazepin-8-yl)-6-oxo-5-oxa-2,4,7-triazanon-3-en-9-oic acid] | > 16 | > 16 | < 8 | > 16 | ** (** represents a k(on) of 100 to 10,000 M^−1 · s^−1) | ** (** represents a k(on) of 100 to 10,000 M^−1 · s^−1) | * (* represents a k(on) < 100 M^−1 · s^−1)
10 | CN/C(=N\OC(=O)NO)[C@@H]1c2c(cnn2C)[C@@H]2CN1C(=O)N2OS(=O)(=O)O (racemic) [Example 17] | 8 to 16 (≈ 19.7 to 39.5 µM) | 8 to 16 (≈ 19.7 to 39.5 µM) | 8 to 16 (≈ 19.7 to 39.5 µM) | > 16 | *** (*** represents a k(on) > 10,000 M^−1 · s^−1) | ** (** represents a k(on) of 100 to 10,000 M^−1 · s^−1) | –
11 | CN/C(=N\OC(=O)NCCCN)[C@@H]1c2c(cnn2C)[C@@H]2CN1C(=O)N2OS(=O)(=O)O (racemic) [Example 25] | > 16 | < 8 | 8 to 16 (≈ 17.9 to 35.8 µM) | 8 to 16 (≈ 17.9 to 35.8 µM) | *** (*** represents a k(on) > 10,000 M^−1 · s^−1) | ** (** represents a k(on) of 100 to 10,000 M^−1 · s^−1) | –
12 | CN/C(=N\OC(=O)NCCCCN)[C@@H]1c2c(cnn2C)[C@@H]2CN1C(=O)N2OS(=O)(=O)O (racemic) [Example 19] | > 16 | < 8 | 8 to 16 (≈ 17.4 to 34.7 µM) | 8 to 16 (≈ 17.4 to 34.7 µM) | *** (*** represents a k(on) > 10,000 M^−1 · s^−1) | ** (** represents a k(on) of 100 to 10,000 M^−1 · s^−1) | –
13 | CN/C(=N\OC(=O)N(C)C)[C@@H]1c2c(cnn2C)[C@@H]2CN1C(=O)N2OS(=O)(=O)O (racemic) [Example 21] | > 16 | > 16 | < 8 | > 16 | *** (*** represents a k(on) > 10,000 M^−1 · s^−1) | ** (** represents a k(on) of 100 to 10,000 M^−1 · s^−1) | –
14 | CN/C(=N\OC(=O)NOC)[C@@H]1c2c(cnn2C)[C@@H]2CN1C(=O)N2OS(=O)(=O)O (racemic) [Example 33] | > 16 | 8 to 16 (≈ 19.1 to 38.2 µM) | 8 to 16 (≈ 19.1 to 38.2 µM) | 8 to 16 (≈ 19.1 to 38.2 µM) | *** (*** represents a k(on) > 10,000 M^−1 · s^−1) | ** (** represents a k(on) of 100 to 10,000 M^−1 · s^−1) | –
